In the supplement of paper PMC10307832:

Columns and labels:
Assay in all cases: relative viability (nuclei count vs DMSO), 5 days (fraction); higher = more cells survive
[1] = compound: C#Cc1cccc(Nc2ncnc3cc(OC)c(OCCCCCCC(=O)NO)cc23)c1 [CUDC-101] + COc1cccc2cc(-c3nc([C@H]4CC[C@H](C(=O)O)CC4)n4ncnc(N)c34)[nH]c12 [OSI-027] (partner 0.5 µM)
Outline: (§1)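 Five library-drug doses in √10 steps were combined with a fixed anchor-drug dose, or a single drug was given alone, by pin tool to lung cancer cell lines in 1536-well plates the day after seeding. Nuclei were stained and counted after 5 days. Relative viability is the nuclei count in treated wells over that in vehicle wells, taken as the median of duplicate plates.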

[2] = compound: C#Cc1cccc(Nc2ncnc3cc(OC)c(OCCCCCCC(=O)NO)cc23)c1 [CUDC-101] + O=C(CCCCCCC(=O)Nc1ccccc1)NO [Vorinostat] (partner 1 µM)
Outline: as §1

[3] = compound: COc1cc2/c(=N/c3ccc(Br)cc3F)nc[nH]c2cc1OCC1CCN(C)CC1 [Vandetanib] + CC(=O)c1c(C)c2cnc(Nc3ccc(N4CCNCC4)cn3)nc2n(C2CCCC2)c1=O [Palbociclib] (partner 0.5 µM)
Outline: as §1

[4] = compound: C#Cc1cccc(Nc2ncnc3cc(OC)c(OCCCCCCC(=O)NO)cc23)c1 [CUDC-101] + CS(=O)(=O)CCNCc1ccc(-c2ccc3ncnc(Nc4ccc(OCc5cccc(F)c5)c(Cl)c4)c3c2)o1 [Lapatinib] (partner 2 µM)
Outline: as §1

UMC-11
relative viability ([1]; first compound 0.01 µM): 0.505
relative viability ([1]; first compound 0.03162 µM): 0.521
relative viability ([1]; first compound 0.1 µM): 0.426
relative viability ([1]; first compound 0.3162 µM): 0.172
relative viability ([1]; first compound 1 µM): 0.105
relative viability ([2]; first compound 0.01 µM): 0.359
relative viability ([2]; first compound 0.03162 µM): 0.317
relative viability ([2]; first compound 0.1 µM): 0.32
relative viability ([2]; first compound 0.3162 µM): 0.129
relative viability ([2]; first compound 1 µM): 0.0877
relative viability ([3]; first compound 0.02 µM): 0.345
relative viability ([3]; first compound 0.06325 µM): 0.336
relative viability ([3]; first compound 0.2 µM): 0.321
relative viability ([3]; first compound 0.6325 µM): 0.348
relative viability ([3]; first compound 2 µM): 0.345
relative viability ([4]; first compound 0.01 µM): 1.05
relative viability ([4]; first compound 0.03162 µM): 0.968
relative viability ([4]; first compound 0.1 µM): 0.724
relative viability ([4]; first compound 0.3162 µM): 0.711
relative viability ([4]; first compound 1 µM): 0.126
